Patent publication EP4667458A1 (Kanaph Therapeutics Inc., priority 2023, dated 2024)
Like-named read-outs stand apart in the source and are kept apart here.

Biological target: T1, KRAS^G12C::SOS1 (Homo sapiens, UniProt Q07889)
T1 sequence (Q07889 1-1333): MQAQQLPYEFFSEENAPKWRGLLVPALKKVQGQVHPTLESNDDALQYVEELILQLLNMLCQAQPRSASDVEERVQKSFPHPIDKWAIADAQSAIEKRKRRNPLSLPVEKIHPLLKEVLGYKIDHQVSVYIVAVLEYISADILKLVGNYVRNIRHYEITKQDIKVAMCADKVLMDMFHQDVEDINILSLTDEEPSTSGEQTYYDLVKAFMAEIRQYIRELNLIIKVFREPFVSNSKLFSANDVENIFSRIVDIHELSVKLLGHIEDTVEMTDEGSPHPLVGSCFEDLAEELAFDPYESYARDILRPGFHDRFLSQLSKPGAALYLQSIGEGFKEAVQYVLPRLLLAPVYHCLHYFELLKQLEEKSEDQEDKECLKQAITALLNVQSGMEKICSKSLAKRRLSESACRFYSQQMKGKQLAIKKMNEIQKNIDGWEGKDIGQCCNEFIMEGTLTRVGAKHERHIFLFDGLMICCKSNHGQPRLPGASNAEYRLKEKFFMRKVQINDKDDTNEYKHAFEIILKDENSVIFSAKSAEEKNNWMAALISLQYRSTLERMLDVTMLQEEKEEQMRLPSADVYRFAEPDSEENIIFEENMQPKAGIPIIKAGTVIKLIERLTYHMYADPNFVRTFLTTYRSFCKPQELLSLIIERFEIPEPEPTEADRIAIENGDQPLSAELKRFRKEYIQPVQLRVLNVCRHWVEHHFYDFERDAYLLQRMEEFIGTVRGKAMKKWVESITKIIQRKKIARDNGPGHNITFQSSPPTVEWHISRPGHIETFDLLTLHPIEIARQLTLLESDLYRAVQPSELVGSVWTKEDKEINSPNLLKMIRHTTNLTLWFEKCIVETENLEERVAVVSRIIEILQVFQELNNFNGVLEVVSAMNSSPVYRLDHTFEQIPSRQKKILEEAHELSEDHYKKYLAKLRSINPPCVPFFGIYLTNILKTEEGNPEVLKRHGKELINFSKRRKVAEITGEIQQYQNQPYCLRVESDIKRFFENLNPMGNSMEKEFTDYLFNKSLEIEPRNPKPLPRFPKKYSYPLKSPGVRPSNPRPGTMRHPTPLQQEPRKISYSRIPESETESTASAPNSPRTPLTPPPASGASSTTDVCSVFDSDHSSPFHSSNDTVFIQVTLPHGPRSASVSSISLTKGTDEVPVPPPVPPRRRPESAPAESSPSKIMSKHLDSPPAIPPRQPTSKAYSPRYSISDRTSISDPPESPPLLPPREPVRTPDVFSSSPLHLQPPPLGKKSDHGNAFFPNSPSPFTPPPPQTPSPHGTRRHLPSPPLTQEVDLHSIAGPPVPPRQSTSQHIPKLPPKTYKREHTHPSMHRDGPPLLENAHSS
Assay: KRAS G12C::SOS1 protein-protein interaction (PPI) inhibition assay (HTRF binding kit)

| IC50 | IC50 (read-out: KRAS ^G12C::SOS1 PPI assay (IC50 range, Grade), maximum concentration 3 µM, 8 concentrations, three replicates) | Compound |
| --- | --- | --- |
| < 1000 nM |  | C[C@@H](NC(=O)c1nn(-c2cnn(C)c2)c(=O)c2cc[nH]c12)c1cc(N)cc(C(F)(F)F)c1 [Example 307, N-[(1R)-1-[3-amino-5-(trifluoromethyl)phenyl]ethyl]-5-(1-methylpyrazol-4-yl)-4-oxo-1H-pyrrolo[2,3-d]pyridazine-7-carboxamide] |
| < 1000 nM |  | COc1cc(-n2nc(C(=O)N[C@H](C)c3cccc(C(F)(F)CO)c3F)ccc2=O)ccn1 [Example 193, N-[(1R)-1-[3-(1,1-difluoro-2-hydroxy-ethyl)-2-fluoro-phenyl]ethyl]-1-(2-methoxy-4-pyridyl)-6-oxo-pyridazine-3-carboxamide] |
|  | 1000 to 10000 nM | N-[(1R)-1-[3-amino-5-(trifluoromethyl)phenyl]ethyl]-6-oxo-1-(3-phenylphenyl)pyridazine-3-carboxamide [Example 212] |
| < 1000 nM |  | C[C@@H](NC(=O)c1cc(Br)c(=O)n(-c2ccccc2)n1)c1cc(N)cc(C(F)(F)F)c1 [Example 241, (R)-N-(1-(3-amino-5-(trifluoromethyl)phenyl)ethyl)-5-bromo-6-oxo-1-phenyl-1,6-dihydropyridazine-3-carboxamide] |
| < 1000 nM |  | C[C@@H](NC(=O)c1ccc(=O)n(-c2ccccc2F)n1)c1cc(N)cc(C(F)(F)F)c1F [Example 245, N-[(1R)-1-[5-amino-2-fluoro-3-(trifluoromethyl)phenyl]ethyl]-1-(2-fluorophenyl)-6-oxo-pyridazine-3-carboxamide] |
| < 1000 nM |  | C[C@@H](NC(=O)c1ccc(=O)n(-c2ccccc2F)n1)c1cccc(C(F)(F)F)c1F [Example 259, 1-(2-fluorophenyl)-N-[(1R)-1-[2-fluoro-3-(trifluoromethyl)phenyl]ethyl]-6-oxo-pyridazine-3-carboxamide] |
| < 1000 nM |  | C[C@@H](NC(=O)c1ccc(=O)n(CC2CC2)n1)c1cc(N)cc(C(F)(F)F)c1 [Example 224, N-[(1R)-1-[3-amino-5-(trifluoromethyl)phenyl]ethyl]-1-(cyclopropylmethyl)-6-oxo-pyridazine-3-carboxamide] |
| < 1000 nM |  | CC(C)c1cccc([C@@H](C)NC(=O)c2ccc(=O)n(-c3ccccc3)n2)c1 [Example 201, N-[(1R)-1-(3-isopropylphenyl)ethyl]-6-oxo-1-phenyl-pyridazine-3-carboxamide] |
| < 1000 nM |  | C[C@@H](NC(=O)c1nn(-c2ccccc2)c(=O)c2ccsc12)c1cc(N)cc(C(F)(F)F)c1 [Example 317, N-[(1R)-1-[3-amino-5-(trifluoromethyl)phenyl]ethyl]-4-oxo-5-phenyl-thieno[2,3-d]pyridazine-7-carboxamide] |
| < 1000 nM |  | Cc1ncccc1-c1cccc(-n2nc(C(=O)N[C@H](C)c3cc(N)cc(C(F)(F)F)c3)ccc2=O)c1 [Example 324, N-[(1R)-1-[3-amino-5-(trifluoromethyl)phenyl]ethyl]-1-[3-(2-methyl-3-pyridyl)phenyl]-6-oxo-pyridazine-3-carboxamide] |
| < 1000 nM |  | C[C@@H](NC(=O)c1nn(-c2ccccc2)c(=O)cc1Cl)c1cc(N)cc(C(F)(F)F)c1 [Example 220, N-[(1R)-1-[3-amino-5-(trifluoromethyl)phenyl]ethyl]-4-chloro-6-oxo-1-phenyl-pyridazine-3-carboxamide] |
| < 1000 nM |  | C[C@@H](NC(=O)c1ccc(=O)n(-c2ccc(OC(F)F)cc2)n1)c1cccc(C(F)(F)CO)c1F [Example 195, N-[(1R)-1-[3-(1,1-difluoro-2-hydroxy-ethyl)-2-fluoro-phenyl]ethyl]-1-[4-(difluoromethoxy)phenyl]-6-oxo-pyridazine-3-carboxamide] |
| < 1000 nM |  | C[C@@H](NC(=O)c1ccc(=O)n(-c2cccc(-c3nnco3)c2)n1)c1cc(N)cc(C(F)(F)F)c1 [Example 235, N-[(1R)-1-[3-amino-5-(trifluoromethyl)phenyl]ethyl]-1-[3-(1,3,4-oxadiazol-2-yl)phenyl]-6-oxo-1,6-dihydropyridazine-3-carboxamide] |
| < 1000 nM |  | COCCn1nc(C(=O)N[C@H](C)c2cc(N)cc(C(F)(F)F)c2)ccc1=O [Example 222, N-[(1R)-1-[3-amino-5-(trifluoromethyl)phenyl]ethyl]-1-(2-methoxyethyl)-6-oxo-pyridazine-3-carboxamide] |
| < 1000 nM |  | C[C@@H](NC(=O)c1ccc(=O)n(-c2cccc(-c3cnn(C)c3)c2)n1)c1cccc(C(F)(F)CO)c1F [Example 340, N-[(1R)-1-[3-(1,1-difluoro-2-hydroxy-ethyl)-2-fluoro-phenyl]ethyl]-1-[3-(1-methylpyrazol-4-yl)phenyl]-6-oxo-pyridazine-3-carboxamide] |
| < 1000 nM |  | CNCc1ccc(Cl)cc1-c1ccc([C@@H](C)NC(=O)c2ccc(=O)n(-c3ccccc3F)c2)s1 [Example 283, N-[(1R)-1-[5-[5-chloro-2-(methylaminomethyl)phenyl]-2-thienyl]ethyl]-1-(2-fluorophenyl)-6-oxo-pyridine-3-carboxamide] |
| < 1000 nM |  | C[C@@H](NC(=O)c1ccc(=O)n(-c2cccc(-c3cnco3)c2)n1)c1cc(N)cc(C(F)(F)F)c1 [Example 343, N-[(1R)-1-[3-amino-5-(trifluoromethyl)phenyl]ethyl]-1-(3-oxazol-5-ylphenyl)-6-oxo-pyridazine-3-carboxamide] |
| < 1000 nM |  | C[C@@H](NC(=O)c1ccc(=O)n(-c2ccc(OC(F)F)cc2)n1)c1cc(N)cc(C(F)(F)F)c1 [Example 198, N-[(1R)-1-[3-amino-5-(trifluoromethyl)phenyl]ethyl]-1-[4-(difluoromethoxy)phenyl]-6-oxo-pyridazine-3-carboxamide] |
| < 1000 nM |  | C[C@@H](NC(=O)c1ccc(=O)n(-c2ccc3cnn(C)c3c2)n1)c1cc(N)cc(C(F)(F)F)c1 [Example 236, N-[(1R)-1-[3-amino-5-(trifluoromethyl)phenyl]ethyl]-1-(1-methyl-1H-indazol-6-yl)-6-oxo-1,6-dihydropyridazine-3-carboxamide] |
| < 1000 nM |  | C[C@@H](NC(=O)c1ccc(=O)n(-c2cccc(-c3ncnn3C)c2)c1)c1cc(N)cc(C(F)(F)F)c1 [Example 318, N-[(1R)-1-[3-amino-5-(trifluoromethyl)phenyl]ethyl]-1-[3-(2-methyl-1,2,4-triazol-3-yl)phenyl]-6-oxo-pyridine-3-carboxamide] |
| < 1000 nM |  | C[C@@H](NC(=O)c1ccc(=O)n(-c2ccccc2F)n1)c1cccc(C(F)(F)CN)c1F [Example 243, N-[(1R)-1-[3-(2-amino-1,1-difluoro-ethyl)-2-fluoro-phenyl]ethyl]-1-(2-fluorophenyl)-6-oxo-pyridazine-3-carboxamide] |
| < 1000 nM |  | C[C@@H](NC(=O)c1ccc(=O)n(-c2ccncc2F)n1)c1cccc(C(F)(F)CO)c1F [Example 361, N-[(1R)-1-[3-(1,1-difluoro-2-hydroxy-ethyl)-2-fluoro-phenyl]ethyl]-1-(3-fluoro-4-pyridyl)-6-oxo-pyridazine-3-carboxamide] |
| < 1000 nM |  | C[C@@H](NC(=O)c1ccc(=O)n(-c2cnn(C)c2)n1)c1cc(N)cc(C(F)(F)F)c1 [Example 200, N-[(1R)-1-[3-amino-5-(trifluoromethyl)phenyl]ethyl]-1-(1-methylpyrazol-4-yl)-6-oxo-pyridazine-3-carboxamide] |
| < 1000 nM |  | COCc1cccc(-n2nc(C(=O)N[C@H](C)c3cccc(C(F)(F)CO)c3F)ccc2=O)c1 [Example 204, N-[(1R)-1-[3-(1,1-difluoro-2-hydroxy-ethyl)-2-fluoro-phenyl]ethyl]-1-[3-(methoxymethyl)phenyl]-6-oxo-pyridazine-3-carboxamide] |
